Reference: the supplement of paper PMC10307832

Columns and labels:
Test in all cases: relative viability (nuclei count vs DMSO), 5 days (fraction); higher = more cells survive
[1] = compound: CC(C)C[C@H](NC(=O)[C@H](CCc1ccccc1)NC(=O)CN1CCOCC1)C(=O)N[C@@H](Cc1ccccc1)C(=O)N[C@@H](CC(C)C)C(=O)[C@@]1(C)CO1 [Carfilzomib] + CS(=O)(=O)N1CCN(Cc2cc3nc(-c4cccc5[nH]ncc45)nc(N4CCOCC4)c3s2)CC1 [Pictilisib] (partner 1 µM)
Outline: (§1)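 Lung cancer cell lines, seeded in 1536-well plates, were treated the following day by pin tool with a single drug or with five library-drug doses (not always all listed) in √10 steps on top of a fixed anchor-drug dose. Cells were fixed and nuclei stained in one step after 5 days, and nuclei were counted. Relative viability is the nuclei count for treated wells divided by that for vehicle wells, reported as medians of duplicate plates.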

[2] = compound: CC(C)C[C@H](NC(=O)[C@H](CCc1ccccc1)NC(=O)CN1CCOCC1)C(=O)N[C@@H](Cc1ccccc1)C(=O)N[C@@H](CC(C)C)C(=O)[C@@]1(C)CO1 [Carfilzomib] + CC(=O)c1c(C)c2cnc(Nc3ccc(N4CCNCC4)cn3)nc2n(C2CCCC2)c1=O [Palbociclib] (partner 0.5 µM)
Outline: as §1

[3] = compound: CC(C)C[C@H](NC(=O)[C@H](CCc1ccccc1)NC(=O)CN1CCOCC1)C(=O)N[C@@H](Cc1ccccc1)C(=O)N[C@@H](CC(C)C)C(=O)[C@@]1(C)CO1 [Carfilzomib] + Cc1cc(Nc2cc(N3CCN(C)CC3)nc(Sc3ccc(NC(=O)C4CC4)cc3)n2)n[nH]1 [Tozasertib] (partner 0.1 µM)
Outline: as §1

[4] = compound: C[C@@H](Oc1cc(-c2cnn(C3CCNCC3)c2)cnc1N)c1c(Cl)ccc(F)c1Cl [Crizotinib] + CC(=O)Nc1cccc(-n2c(=O)n(C3CC3)c(=O)c3c(Nc4ccc(I)cc4F)n(C)c(=O)c(C)c32)c1 [Trametinib] (partner 0.02 µM)
Outline: as §1

Cell Line	relative viability ([1]; first compound 0.001 µM)	relative viability ([1]; first compound 0.003162 µM)	relative viability ([1]; first compound 0.01 µM)	relative viability ([1]; first compound 0.03162 µM)	relative viability ([1]; first compound 0.1 µM)	relative viability ([2]; first compound 0.001 µM)	relative viability ([2]; first compound 0.003162 µM)	relative viability ([2]; first compound 0.01 µM)	relative viability ([2]; first compound 0.03162 µM)	relative viability ([2]; first compound 0.1 µM)	relative viability ([3]; first compound 0.001 µM)	relative viability ([3]; first compound 0.003162 µM)	relative viability ([3]; first compound 0.01 µM)	relative viability ([3]; first compound 0.03162 µM)	relative viability ([3]; first compound 0.1 µM)	relative viability ([4]; first compound 0.01 µM)	relative viability ([4]; first compound 0.03162 µM)	relative viability ([4]; first compound 0.1 µM)	relative viability ([4]; first compound 0.3162 µM)	relative viability ([4]; first compound 1 µM)
NCI-H441	0.486	0.569	0.144	0.105	0.141	0.217	0.219	0.178	0.0969	0.155	0.6	0.626	0.49	0.193	0.247	0.405	0.475	0.59	0.382	0.446
ABC-1	0.691	0.471	0.237	0.249	0.216	0.831	0.736	0.441	0.273	0.253	0.196	0.193	0.196	0.212	0.211					
NCI-H2170	0.317	0.349	0.327	0.283	0.163	0.38	0.437	0.456	0.339	0.127	0.751	0.73	0.749	0.659	0.173	0.859	0.993	0.869	0.928	0.909
NCI-H1944	0.353	0.344	0.322	0.3	0.247	0.318	0.361	0.372	0.318	0.152	0.248	0.236	0.253	0.265	0.16	0.408	0.426	0.428	0.372	0.417
PC-3 [JPC-3]	0.782	0.747	0.677	0.707	0.259	0.516	0.539	0.564	0.502	0.333	0.859	0.926	0.901	0.866	0.374	0.634	0.721	0.759		0.651
NCI-H1648						0.236	0.23	0.227	0.288	0.255		0.556	0.495	0.37	0.248		0.462	0.539	0.483	0.463
NCI-H1975	0.284	0.301	0.219	0.0929	0.101	0.364	0.635	0.472	0.119	0.107		0.766	0.371	0.0617	0.0846	0.338	0.326	0.363	0.373	0.402
NCI-H650	0.83	1.06	1.01	0.385	0.189	0.331	0.362	0.367	0.224	0.14		0.9	0.745	0.588	0.157	0.955	1.04			
NCI-H1623											0.404	0.443	0.515	0.434	0.294					
NCI-H1755	0.412	0.479	0.413	0.239	0.16	0.465	0.458	0.461	0.408	0.293	0.612	0.505	0.571	0.609	0.269	0.776	0.744	0.85	0.756	0.742
NCI-H1666	0.536	0.676	0.586	0.422	0.228	0.674	0.67	0.651	0.615	0.488	0.667	0.551	0.58	0.523	0.312	0.838	0.865	0.866		0.902
NCI-H1792	0.291	0.313	0.282	0.24	0.199	0.655	0.646	0.707	0.634	0.466						0.492	0.526	0.365		0.453
CAL-12T		0.767	0.586	0.304	0.143	0.507	0.507	0.586	0.165	0.145	0.313	0.393	0.333	0.251	0.125	0.268	0.413	0.32	0.393	0.374
EPLC-272H	0.188	0.363	0.322	0.0934	0.0877	0.285	0.337	0.317	0.114	0.0482	0.282	0.25	0.317	0.105	0.0498	0.277	0.281	0.299		0.307
IA-LM	0.293	0.305	0.292	0.0283	0.0095															
PC-14	0.55	0.816	0.364	0.0334	0.0646	0.558	0.597	0.437	0.05	0.0508	0.575	0.677	0.69	0.545	0.0359	0.842	0.742	0.78	0.699	0.756
NCI-H1703	0.202	0.3	0.17	0.16	0.144															
NCI-H1437	0.313	0.463	0.41	0.322	0.0975	0.318	0.329	0.415	0.296	0.213	0.403	0.424	0.4	0.433	0.252	0.542	0.577	0.544	0.457	0.608
NCI-H358	0.424	0.453	0.305	0.147	0.135	0.139	0.117	0.114	0.0724	0.0923	0.0998	0.0949	0.127	0.057	0.0759	0.108	0.151	0.131	0.112	0.135
LK-2		0.826	0.64	0.266	0.251	0.661	0.659	0.846	0.116	0.106	0.181	0.172	0.159	0.179	0.196	0.858	0.749	0.674	0.805	0.728

Cell Line	relative viability ([1]; first compound 0.001 µM)	relative viability ([1]; first compound 0.003162 µM)	relative viability ([1]; first compound 0.01 µM)	relative viability ([1]; first compound 0.03162 µM)	relative viability ([1]; first compound 0.1 µM)	relative viability ([2]; first compound 0.001 µM)	relative viability ([2]; first compound 0.003162 µM)	relative viability ([2]; first compound 0.01 µM)	relative viability ([2]; first compound 0.03162 µM)	relative viability ([2]; first compound 0.1 µM)	relative viability ([3]; first compound 0.001 µM)	relative viability ([3]; first compound 0.003162 µM)	relative viability ([3]; first compound 0.01 µM)	relative viability ([3]; first compound 0.03162 µM)	relative viability ([3]; first compound 0.1 µM)	relative viability ([4]; first compound 0.01 µM)	relative viability ([4]; first compound 0.03162 µM)	relative viability ([4]; first compound 0.1 µM)	relative viability ([4]; first compound 0.3162 µM)	relative viability ([4]; first compound 1 µM)
H3255	0.433	0.52	0.426	0.423	0.177	0.334	0.331	0.309	0.231	0.264	0.697	0.604	0.686	0.737	0.392	0.557	0.666	0.602	0.652	0.479
NCI-H1355	0.404	0.6	0.396	0.219	0.145	0.41	0.419	0.432	0.422	0.139	0.537	0.647	0.569	0.371	0.192	0.416	0.409	0.45	0.396	0.404
LCLC-103H	0.616	0.659	0.718	0.685	0.347	0.415	0.47	0.465	0.494	0.416	0.467	0.511	0.408	0.518	0.169	0.644	0.646	0.662	0.686	0.642
NCI-H838	0.487	0.525	0.449	0.615	0.144	0.209	0.226	0.268	0.193	0.102	0.273	0.276	0.298	0.31	0.116	0.474	0.513	0.576	0.515	0.498
Calu-6	1.01	0.97	0.798	0.108	0.0567															
BEN	0.635	0.679	0.587	0.523	0.249	0.491	0.465	0.455	0.499	0.319	0.554	0.547	0.591	0.553	0.421		0.982	0.948	1.15	1.17
NCI-H1651	0.551	0.601	0.231	0.0999	0.0685	0.521	0.549	0.485	0.151	0.0991	0.626	0.805	0.559	0.126	0.0943	0.802	0.832	0.822	0.792	0.803
NCI-H2087	0.802	0.874	0.552	0.0964	0.18	0.194	0.343	0.192	0.0427	0.0568	0.264	0.236	0.239	0.0397	0.0474	0.145	0.206	0.214	0.23	0.172
NCI-H520	0.263	0.246	0.222	0.176	0.186	0.187	0.217	0.162	0.133	0.144	0.515	0.492	0.371	0.227	0.259	0.603	0.744	0.767	0.568	0.668
NCI-H460	0.438	0.376	0.381	0.0673	0.0409	0.125	0.225	0.0809	0.0983	0.0171	0.363	0.51	0.48	0.512	0.0337	0.212	0.154	0.211	0.165	0.149
SK-MES-1	0.338	0.419	0.337	0.283	0.174	0.387	0.344	0.34	0.282	0.183	0.939	1.07	0.998	0.725	0.136	0.511	0.561	0.54	0.621	0.57
NCI-H2342						0.488	0.57	0.58	0.576	0.44	0.495	0.473	0.579	0.543	0.385	0.818	0.896	0.78	0.868	0.829
A549	0.525	0.472	0.44	0.118	0.0573															
NCI-H596	0.365	0.425	0.398	0.259	0.18						1.16	0.878	0.721	0.222	0.168	0.834	0.845	0.82	0.888	0.819
EBC-1	0.407	0.347	0.192	0.0926	0.117															
NCI-H1299	0.735	0.838	0.6	0.0711	0.0334															
NCI-H522						0.873	0.977	0.848	1.08	0.274	0.491	0.6	0.653	0.349	0.346	0.619	0.689	0.799	0.703	0.8
SW 900							0.51	0.288	0.19	0.186	0.508	0.682	0.142	0.149	0.164	0.907	0.9	0.752	0.938	0.614
NCI-H1563	0.615	0.62	0.689	0.595	0.548															
